Test results published in US7202069B2, “(R)-2-octanol dehydrogenases, methods for producing the enzymes, DNA encoding the enzymes, and methods for producing alcohols using the enzymes” (Daicel Chemical Industries, Ltd., priority 2000, dated 2007).
Like-named read-outs stand apart in the source and are kept apart here.

What was measured:
[1] = tested on: (R)-2-octanol dehydrogenase; test: Oxidation activity of (R)-2-octanol dehydrogenase on various alcohols, NAD+ as coenzyme; assay type: biochemical, Pichia finlandica; details: oxidation activity of (R)-2-octanol taken as 100
Description: (§1) On the other hand, oxidation activity on (R)-2-octanol can be measured as follows. The activity can be validated by incubating at 30° C. the reaction mixture containing Tris-HCl buffer (pH 8.5, 50 mM), 2.5 mM NAD^+, 5 mM (R)-2-octanol, and the enzyme and by measuring increase of absorbance at 340 nm accompanying generation of NADH. 1 U was defined as the amount of the enzyme catalyzing generation of 1 μmol of NADH for 1 minute.
The (R)-2-octanol dehydrogenase was reacted with various alcohols and its oxidation activity was measured.

[2] = tested on: (R)-2-octanol dehydrogenase; test: as above; assay type: biochemical, Candida utilis; details: oxidation activity of (R)-2-octanol taken as 100
Description: as §1
The (R)-2-octanol dehydrogenase was reacted with various alcohols and its oxidation activity was measured. […] As a result, the relative activity was 6.7% for (S)-2-octanol, 8.3% for 2-propanol, and 86% for (R)-1-phenylethanol.

[3] = tested on: (R)-2-octanol dehydrogenase; test: Reduction activity of the enzyme of Example 3 on various ketones, NADH as coenzyme; assay type: biochemical, Pichia finlandica
Description: (§2) In the present invention, reduction activity on 4-chloroacetoacetic acid ester can be measured as follows. The activity can be validated by incubating at 30° C. the reaction mixture containing potassium phosphate buffer (pH 6.5, 100 mM), 0.2 mM NADH, 20 mM ethyl 4-chloroacetoacetate, and the enzyme and by measuring decrease of absorbance at 340 nm accompanying decrease of NADH. 1 U was defined as the amount of the enzyme catalyzing decrease of 1 μmol of NADH for 1 minute. Quantification of proteins can be done by dye binding method using the protein assay kit (BIORAD).
The enzyme of Example 3 was reacted with various ketones and its reduction activity was measured.

[4] = tested on: (R)-2-octanol dehydrogenase; test: Residual (R)-2-octanol dehydrogenase activity after treatment with reagents; assay type: biochemical, Pichia finlandica
Description: The (R)-2-octanol dehydrogenase was treated with various reagents at 30° C. for 30 minutes and the (R)-2-octanol dehydrogenase activity was measured.

[5] = tested on: (R)-2-octanol dehydrogenase; test: Activation of (R)-2-octanol dehydrogenase by reagents; assay type: biochemical, Pichia finlandica; details: for Relative activity: reagent 1 mM, activity without reagents = 100
Description: The activation effect of (R)-2-octanol dehydrogenase in various reagents was measured.

[6] = tested on: (R)-2-octanol dehydrogenase; test: Reduction activity of the enzyme of Example 35 on various ketones, NADH as coenzyme; assay type: biochemical, Candida utilis
Description: as §2
The enzyme of Example 35 was also reacted with various ketones and its reduction activity was measured. […] As a result, the relative activity was 26.6% for 2-octanone and 25.3% for acetophenone.

[7] = (R)-2-octanol oxidation activity of the purified enzyme (specific activity, optimum pH, optimum temperature); assay type: biochemical, Pichia finlandica; details: after Superdex 200 gel filtration
Description: as §1
The highest specific activity of the purified enzyme was about 91 U/mg-protein which is the activity of oxidizing (R)-2-octanol.
We examined (R)-2-octanol dehydrogenase activity of the enzyme obtained from Example 3 changing pH by using phosphate buffer (KPB), Tris-HCl buffer, Glycine buffer. […] As a result, the optimum pH of the enzyme was from 8.0 to 11.0.
We examined (R)-2-octanol oxidation activity of the enzyme obtained from Example 3 changing only temperature in the standard reaction conditions. […] As a result, the optimum temperature of the enzyme was from 45 to 55.

[8] = reduction activity of 4-chloroacetoacetic acid ethyl ester taken as 100, NADH as coenzyme
[9] = reagent 1 mM, 30° C. for 30 minutes, enzyme treated without reagents = 100
[10] = treated at 30° C. for 30 minutes
[11] = reagent 0.01 mM, 30° C. for 30 minutes, enzyme treated without reagents = 100
[12] = 4-chloroacetoacetic acid ethyl ester taken as 100, NADH

Molecule: C[C@H](O)c1ccccc1 [(S)-1-phenylethanol]
- relative activity, oxidation reaction ([1]; NAD+ as coenzyme): 1.81
- relative activity, oxidation reaction ([2]; NAD+ as coenzyme): 6.7

Molecule: CCC=O [Propionaldehyde]
- relative activity, reduction reaction [3, 8]: 18.4

Molecule: CCCCCC[C@@H](C)O [(R)-2-octanol]
- relative activity, oxidation reaction ([1]; NAD+ as coenzyme): 100
- relative activity, oxidation reaction ([2]; NAD+ as coenzyme): 100

Molecule: [Cl-].[K+] [KCl]
- Residual activity [4, 9]: 106%

Molecule: O=C([O-])CN(CCN(CC(=O)[O-])CC(=O)O)CC(=O)O.[Na+].[Na+] [EDTAÑ2Na, ethylenediaminetetraacetic acid 2Na]
- Residual activity [4, 9]: 81%
- effect of reagent on the enzyme (inhibition / stabilization), in words [4, 10]: slightly inhibited

Molecule: O=S(=O)(O)O [sulphate ion]
- activation of the enzyme, in words [5]: activated

Molecule: O[C@H](CS)[C@H](O)CS (racemic) [Dithiothreitol]
- Residual activity [4, 9]: 123%

Molecule: [Zn+2] [zinc]
- activation of the enzyme, in words [5]: activated

Molecule: CCCCCCC(C)O (stereo not drawn) [2-Octanol]
- relative activity, oxidation reaction ([1]; NAD+ as coenzyme): 77.8
- relative activity, oxidation reaction ([2]; NAD+ as coenzyme): 8.3

Molecule: O.O.O.O.O.O.[Cl][Ni][Cl] [NiCl2Ñ6H2O]
- Residual activity [4, 9]: 103%

Molecule: Cl.NO [NH2OHÑHCl]
- Residual activity [4, 11]: 99%

Molecule: O=S(=O)(F)Cc1ccccc1 [Phenylmethylsulfonyl fluoride]
- Residual activity [4, 9]: 111%

Molecule: O=S(=O)([O-])[O-].[Mg+2] [MgSO4]
- Relative activity [5]: 125%

Molecule: CCOC(=O)C[C@H](C)O [Ethyl (S)-3-hydroxybutyrate]
- relative activity, oxidation reaction ([1]; NAD+ as coenzyme): 1.03

Molecule: [Mg] [magnesium]
- activation of the enzyme, in words [5]: activated

Molecule: OCC[C@@H](O)c1ccccc1 [(R)-1-phenyl-1,3-propanediol]
- relative activity, oxidation reaction ([1]; NAD+ as coenzyme): 0.344

Molecule: CC(=O)c1ccccc1 [Acetophenone]
- relative activity, reduction reaction [3, 12]: 45%
- relative activity, reduction reaction [3, 8]: 45.3
- relative activity, reduction reaction [6, 12]: 25.3%
- relative activity, reduction reaction [6, 8]: 25.3

Molecule: OC1CCCCC1 [Cyclohexanol]
- relative activity, oxidation reaction ([1]; NAD+ as coenzyme): 0.172

Molecule: CC(O)COc1ccccc1 (stereo not drawn) [1-Phenoxy-2-propanol]
- relative activity, oxidation reaction ([1]; NAD+ as coenzyme): 15.5

Molecule: C[C@@H](O)CCO [(R)-1,3-butanediol]
- relative activity, oxidation reaction ([1]; NAD+ as coenzyme): 1.29

Molecule: CCC(C)=O [2-Butanone]
- relative activity, reduction reaction [3, 8]: 7.99

Molecule: C[C@@H](O)c1ccccc1 [(R)-1-phenylethanol]
- relative activity, oxidation reaction ([1]; NAD+): 255%
- relative activity, oxidation reaction ([1]; NAD+ as coenzyme): 255
- relative activity, oxidation reaction ([2]; NAD+): 86%
- relative activity, oxidation reaction ([2]; NAD+ as coenzyme): 86.7

Molecule: c1cnc2c(c1)ccc1cccnc12 [o-Phenanthroline]
- Residual activity [4, 9]: 162%
- effect of reagent on the enzyme (inhibition / stabilization), in words [4, 10]: stabilized

Molecule: CCO [Ethanol]
- relative activity, oxidation reaction ([1]; NAD+ as coenzyme): 0.688

Molecule: O.O.O.O.O.O.[Cl-].[Cl-].[Co+2] [CoCl2Ñ6H2O]
- Residual activity [4, 9]: 99%

Molecule: manganese chloride [MnCl2Ñ4H2O]
- Relative activity [5]: 114%
- Residual activity [4, 9]: 185%
- effect of reagent on the enzyme (inhibition / stabilization), in words [4, 10]: stabilized

Molecule: CCOC(=O)CC(C)=O [Ethyl acetoacetate]
- relative activity, reduction reaction [3, 8]: 106

Molecule: MnSO4Ñ4-5H2O
- Relative activity [5]: 121%

Molecule: CCCCC(C)O (stereo not drawn) [2-Hexanol]
- relative activity, oxidation reaction ([1]; NAD+ as coenzyme): 54.1

Molecule: CCOC(=O)C[C@@H](O)CCl [Ethyl (R)-4-chloro-3-hydroxybutyrate]
- relative activity, oxidation reaction ([1]; NAD+ as coenzyme): 0.172

Molecule: O.O.[Ba+2].[Cl-].[Cl-] [BaCl2Ñ2H2O]
- Residual activity [4, 9]: 102%

Molecule: OCC[C@H](O)c1ccccc1 [(S)-1-phenyl-1,3-propanediol]
- relative activity, oxidation reaction ([1]; NAD+ as coenzyme): 0.258

Molecule: CCOC(=O)C[C@@H](C)O [Ethyl (R)-3-hydroxybutyrate]
- relative activity, oxidation reaction ([1]; NAD+ as coenzyme): 41.1

Molecule: O=S(=O)([O-])[O-].[Cu+2] [CuSO4]
- Residual activity [4, 9]: 100%

Molecule: CCCCCCC(C)=O [2-Octanone]
- relative activity, reduction reaction [3, 12]: 31.2%
- relative activity, reduction reaction [3, 8]: 31.2
- relative activity, reduction reaction [6, 12]: 26.6%
- relative activity, reduction reaction [6, 8]: 26.6

Molecule: [Mn+2] [manganese]
- activation of the enzyme, in words [5]: activated

Molecule: CC(=O)COc1ccccc1 [1-Phenoxy-2-propanone]
- relative activity, reduction reaction [3, 8]: 54.2

Molecule: CCOC(=O)CC(=O)CCl [Ethyl 4-chloroacetoacetate]
- relative activity, reduction reaction [3, 8]: 100
- relative activity, reduction reaction [6, 8]: 100

Molecule: [Cl][Hg][Cl] [HgCl2, mercury chloride]
- Residual activity [4, 11]: 62%
- effect of reagent on the enzyme (inhibition / stabilization), in words [4, 10]: slightly inhibited

Molecule: O=c1c(O)c(-c2ccc(O)c(O)c2)oc2cc(O)cc(O)c12 [Quercetin]
- Residual activity ([4]; reagent 0.1 mM, 30° C. for 30 minutes, enzyme treated without reagents = 100): 99%

Molecule: O.O.O.O.O.O.O.O=S(=O)([O-])[O-].[Zn+2] [ZnSO4Ñ7H2O]
- Relative activity [5]: 110%

Molecule: CC(=O)CCO [4-Hydroxy-2-butanone]
- relative activity, reduction reaction [3, 8]: 0.691

Molecule: [Cl-].[Cl-].[Mg+2] [MgCl2Ñ6H2O, magnesium chloride]
- Relative activity [5]: 122%
- Residual activity [4]: 185%
- effect of reagent on the enzyme (inhibition / stabilization), in words [4]: stabilized

Molecule: CCOC(=O)C[C@H](O)CCl [Ethyl (S)-4-chloro-3-hydroxybutyrate]
- relative activity, oxidation reaction ([1]; NAD+ as coenzyme): 2.24

Molecule: CCCCCCCCO [1-Octanol]
- relative activity, oxidation reaction ([1]; NAD+ as coenzyme): 1.72

Molecule: CCCCCC[C@H](C)O [(S)-2-octanol]
- relative activity, oxidation reaction ([1]; NAD+): 4.7%
- relative activity, oxidation reaction ([1]; NAD+ as coenzyme): 4.73
- relative activity, oxidation reaction ([2]; NAD+): 6.7%
- relative activity, oxidation reaction ([2]; NAD+ as coenzyme): 6.7

Molecule: C[C@H](O)CCO [(S)-1,3-butanediol]
- relative activity, oxidation reaction ([1]; NAD+ as coenzyme): 0.516

Molecule: (R)-2-butanol
- relative activity, oxidation reaction ([1]; NAD+ as coenzyme): 49.3

Molecule: [Ca+2].[Cl-].[Cl-] [CaCl2Ñ2H2O, calcium chloride]
- Residual activity [4]: 174%
- effect of reagent on the enzyme (inhibition / stabilization), in words [4]: stabilized

Molecule: CCN1C(=O)C=CC1=O [N-ethylmaleimide]
- Residual activity [4, 9]: 147%
- effect of reagent on the enzyme (inhibition / stabilization), in words [4, 10]: stabilized

Molecule: CC(C)O [2-Propanol]
- relative activity, oxidation reaction ([1]; NAD+): 6.8%
- relative activity, oxidation reaction ([1]; NAD+ as coenzyme): 6.79
- relative activity, oxidation reaction ([2]; NAD+): 8.3%

Molecule: (S)-2-butanol
- relative activity, oxidation reaction ([1]; NAD+ as coenzyme): 7.31

Molecule: [Cl][Fe][Cl] [FeCl2]
- Residual activity [4, 9]: 93%

Molecule: [Cl-].[Cl-].[Zn+2] [ZnCl2]
- Relative activity [5]: 105%
- Residual activity [4, 9]: 96%

Molecule: CC(C)=O [Acetone]
- relative activity, reduction reaction [3, 8]: 1.82

B1: (R)-2-octanol dehydrogenase from Pichia finlandica: NAD+-dependent (R)-2-octanol dehydrogenase purified from Pichia finlandica DSM 70280; amino acid sequence SEQ ID NO:2 (protein, listed as Pichia finlandica)
chain: MSYNFHNKVAVVTGALSGIGLSVAKKFLQLGAKVTISDVSGEKKYHETVVALKAQNLNTDNLHYVQADSSKEEDNKKLISETLATFGGLDIVCANAGIGKFAPTHETPFDVWKKVIAVNLNGVFLLDKLAINYWLEKSKPGVIVNMGSVHSFVAAPGLAHYGAAKGGVKLLTQTLALEYASHGIRVNSVNPGYISTPLIDEVPKERLDKLVSLHPIGRLGRPEEVADAVAFLCSQEATFINGVSLPVDGGYTAQ
- highest specific activity of the purified enzyme, oxidizing (R)-2-octanol [7]: about 91 U/mg-protein
